Holding throughout (format): in vivo
In assay [1] the test system is Myzus persicae. Briefly: Myzus persicae oral test. Particulars: 120 h, 20 ppm, oral uptake, after 5 days, read-out: efficacy. The method, boiled down: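 Aphids of mixed ages imbibe, through parafilm, compound solution (acetone stock, water-diluted) combined with sugar-supplemented IPL41 medium to 200 μl. Efficacy read at day 5 as percent killed, 0% meaning no deaths.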

Assay [2] relates to Meloidogyne incognita. Briefly: Meloidogyne incognita test. As to conditions: 336 h, lettuce, after 14 days, read-out: nematicidal efficacy (formation of galls). The method, boiled down:
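Gall formation on lettuce roots scored after 14 days: 0% means gall count equals untreated control, 100% means none. Sand vessels held the compound (acetone concentrate diluted in water), southern root-knot nematode egg/larvae suspension and lettuce seeds.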

Assay [3] concerns Myzus persicae. Nature of the assay: Myzus persicae spray test (Chinese cabbage leaf discs). Particulars: foliar, 120 h, after 5-6 days, read-out: efficacy. The procedure, abridged:
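Formulated compound in acetone/dimethylformamide, diluted in water with 1000 ppm emulsifier, was sprayed onto Brassica pekinensis leaf discs carrying mixed-stage Myzus persicae. Percent mortality was read 5-6 days later (0% = no aphids killed, 100% = all killed).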

Take `Cn1cc(C(=O)NS(=O)(=O)c2cc(Cl)cnc2Cl)nc1-c1c(F)cccc1F` [Example 343]: the pest or weed control at 20 ppm in assay [1] and in assay [2] was 90% in each case. The pest or weed control at 500 g/ha in assay [3] amounted to 100%.
`Cc1cc(F)ccc1S(=O)(=O)NC(=O)c1cn(C)c(-c2c(F)cccc2F)n1` [Example 444]: the pest or weed control at 20 ppm in assay [1] and in assay [2] was 100% each time. For the same compound, the pest or weed control at 500 g/ha in assay [3] came to 90%.
On to `CCc1[nH]c(-c2cccc(C(C)C)c2)nc1C(=O)NS(=O)(=O)c1ccccc1Cl` [Example 613], for which the pest or weed control at 20 ppm in assay [1] worked out at 100%; in assay [2], 90%. In addition, the pest or weed control at 100 g/ha in assay [3] (100 g/ha) stood at 90%.
In the case of `CCc1ccccc1S(=O)(=O)NC(=O)c1cc(OC)n(-c2ccccc2Cl)n1` [Example 281], the pest or weed control at 20 ppm in assay [1] and in assay [2] was 100% each time. Further, the pest or weed control at 500 g/ha in assay [3] was 90%.
As to `Cn1cc(C(=O)NS(=O)(=O)c2ccccc2OC(F)(F)F)nc1-c1ccccc1Cl` [Example 55], the pest or weed control at 20 ppm in assay [1] came out at 100%; in assay [2], 90%. For the same compound, the pest or weed control at 500 g/ha in assay [3] amounted to 90%.
Turning to `COc1ccc(C)c(S(=O)(=O)NC(=O)c2cn(C)c(-c3ncccc3F)n2)c1` [Example 593], the figures for the pest or weed control at 20 ppm in assay [1] and in assay [2] were 100% and 90%, respectively. Moreover, in assay [3], the pest or weed control at 500 g/ha stood at 100%.
For `Cc1ccccc1-c1nc(C(=O)NS(=O)(=O)c2c(Cl)cccc2Cl)cn1C` [Example 99], the pest or weed control at 20 ppm came to 100% in assay [1] and 90% in assay [2]. Also, the pest or weed control at 500 g/ha in assay [3] was 90%.
Turning to `Cn1cc(C(=O)NS(=O)(=O)c2ccccc2)nc1-c1c(Cl)cccc1Cl` [Example 44], the pest or weed control at 20 ppm in assay [1] worked out at 90%; in assay [2] it was 100%. For the same compound, the pest or weed control at 500 g/ha in assay [3] is 90%.
As to `Cn1cc(C(=O)NS(=O)(=O)c2cccc3c2OC(F)(F)C(F)(F)O3)nc1-c1c(F)cccc1F` [Example 312], the pest or weed control at 20 ppm in assay [1] worked out at 100%; in assay [2] it was 90%. Besides, the pest or weed control at 500 g/ha in assay [3] turned out to be 90%.
In the case of `O=C(NS(=O)(=O)c1c(Cl)cccc1Cl)c1cc(-c2ncccc2Cl)n(-c2ccccc2Cl)n1` [Example 266], the results for the pest or weed control at 20 ppm in assay [1] and in assay [2] were 100% and 90%, respectively. Further, the pest or weed control at 500 g/ha in assay [3] is 90%.
As to `COc1ccc(F)cc1S(=O)(=O)NC(=O)c1cn(C)c(-c2ncccc2F)n1` [Example 596], the figures for the pest or weed control at 20 ppm in assay [1] and in assay [2] were 100% and 90%, respectively. Also, the pest or weed control at 500 g/ha in assay [3] is 100%.
As to `COc1ccc(Cl)cc1S(=O)(=O)NC(=O)c1cn(C)c(-c2c(F)cccc2F)n1` [Example 393], the pest or weed control at 20 ppm is 100% in assay [1] and 90% in assay [2]. Moreover, the pest or weed control at 500 g/ha in assay [3] stood at 100%.
As for `CCc1ccccc1S(=O)(=O)NC(=O)c1cc(C)n(-c2ncccc2Cl)n1` [Example 284], the pest or weed control at 20 ppm was 100% in assay [1] and 90% in assay [2]. Besides, the pest or weed control at 500 g/ha in assay [3] came to 100%.
With `COc1ccc(Cl)c(S(=O)(=O)NC(=O)c2cn(C)c(-c3ncccc3F)n2)c1` [Example 514], the results for the pest or weed control at 20 ppm in assay [1] and in assay [2] were 100% and 90%, respectively. For the same compound, the pest or weed control at 500 g/ha in assay [3] was 100%.
For the compound `CCc1ccc(C)c(S(=O)(=O)NC(=O)c2cn(C)c(-c3c(F)cccc3F)n2)c1` [Example 395], the pest or weed control at 20 ppm in assay [1] and in assay [2] was 90% in each case. Also, the pest or weed control at 500 g/ha in assay [3] was found to be 100%.
With `Cc1ccccc1S(=O)(=O)NC(=O)c1cc(C)n(-c2ccccc2Cl)n1` [Example 272], the pest or weed control at 20 ppm in assay [1] and in assay [2] was 100% throughout. In addition, the pest or weed control at 500 g/ha in assay [3] is 100%.
Turning to `Cc1ccc(S(=O)(=O)NC(=O)c2cn(C)c(-c3c(F)cccc3F)n2)c(C)c1` [Example 443], the pest or weed control at 20 ppm in assay [1] and in assay [2] was 100% throughout. For the same compound, the pest or weed control at 500 g/ha in assay [3] came to 90%.
As for `COc1ccccc1S(=O)(=O)NC(=O)c1cn(C)c(-c2cccc(F)c2F)n1` [Example 528], the pest or weed control at 20 ppm in assay [1] is 100%; in assay [2], 90%. The pest or weed control at 500 g/ha in assay [3] stood at 100%.
As to `Cn1cc(C(=O)NS(=O)(=O)c2ccc(Cl)cc2)nc1-c1c(Cl)cccc1Cl` [Example 43], the pest or weed control at 20 ppm in assay [1] came out at 90%; in assay [2], 100%. Besides, the pest or weed control at 500 g/ha in assay [3] was found to be 90%.
Turning to `Cn1cc(C(=O)NS(=O)(=O)c2cccc(Cl)c2)nc1-c1c(F)cccc1Cl` [Example 113], the pest or weed control at 20 ppm in assay [1] and in assay [2] was 100% throughout. Besides, the pest or weed control at 500 g/ha in assay [3] worked out at 90%.
For `CC(C)S(=O)(=O)NC(=O)c1cn(C)c(-c2c(Cl)cccc2Cl)n1` [Example 81], the pest or weed control at 20 ppm in assay [1] was determined as 90%; in assay [2], 100%. The pest or weed control at 500 g/ha in assay [3] was found to be 90%.
Regarding `CC(C)Nc1cccc(F)c1S(=O)(=O)NC(=O)c1cn(C)c(-c2c(F)cccc2F)n1` [Example 178], the pest or weed control at 20 ppm in assay [1] and in assay [2] was 100% each time. In addition, the pest or weed control at 500 g/ha in assay [3] is 90%.
On to `Cc1cc(S(=O)(=O)NC(=O)c2cn(C)c(-c3c(F)cccc3F)n2)c(C)s1` [Example 182], for which the pest or weed control at 20 ppm in assay [1] and in assay [2] was 100% in each case. Further, the pest or weed control at 500 g/ha in assay [3] came to 90%.
`Cn1cc(C(=O)NS(=O)(=O)c2cccc3c2OCC3)nc1-c1c(F)cccc1F` [Example 317]: the pest or weed control at 20 ppm was 100% in assay [1] and 90% in assay [2]. The pest or weed control at 500 g/ha in assay [3] worked out at 90%.
`COc1cc(C(=O)NS(=O)(=O)c2c(Cl)cccc2Cl)nn1-c1ccccc1Cl` [Example 270]: the pest or weed control at 20 ppm in assay [1] and in assay [2] was 100% throughout. In addition, the pest or weed control at 500 g/ha in assay [3] was determined as 90%.
As to `Cn1cc(C(=O)NS(=O)(=O)c2c(Cl)cccc2C(F)(F)F)nc1-c1ncccc1Cl` [Example 600], the pest or weed control at 20 ppm in assay [1] and in assay [2] was 100% in each case. For the same compound, the pest or weed control at 500 g/ha in assay [3] stood at 100%.
Take `Cn1cc(C(=O)NS(=O)(=O)c2c(Cl)cccc2Cl)nc1-c1ccccc1F` [Example 96]: the pest or weed control at 20 ppm in assay [1] and in assay [2] was 100% throughout. Further, in assay [3], the pest or weed control at 500 g/ha was found to be 100%.
As for `COc1ccc(Cl)c(S(=O)(=O)NC(=O)c2nc(-c3ccccc3Cl)n(C)n2)c1` [Example 15], the pest or weed control at 20 ppm in assay [1] stood at 100%; in assay [2], 90%. Moreover, the pest or weed control at 500 g/ha in assay [3] turned out to be 90%.
As for `Cc1c(C(=O)NS(C)(=O)=O)nc(-c2ccccc2Cl)n1C` [Example 71], the pest or weed control at 20 ppm in assay [1] was determined as 100%; in assay [2], 90%. Further, the pest or weed control at 500 g/ha in assay [3] is 90%.
Consider `Cc1cc(C(=O)NS(=O)(=O)c2ccccc2Cl)nn1-c1ncccc1Br` [Example 295], for which the pest or weed control at 20 ppm came to 100% in assay [1] and 90% in assay [2]. In assay [3], the pest or weed control at 500 g/ha was 100%.

The values above are taken from patent publication US20200288710A1, “SUBSTITUTED SULPHONAMIDES FOR CONTROLLING ANIMAL PESTS” (BAYER CROPSCIENCE AKTIENGESELLSCHAFT, priority 2016, published 2020).
